Data from US7524646B2 (priority 2001, dated 2009).

B1: K277Q: ValRS of E. coli with single substitution K277Q in the editing domain (protein, UniProt P07118 1-951, looked up, variant K277Q)
Valine--tRNA ligase: MEKTYNPQDIEQPLYEHWEKQGYFKPNGDESQESFCIMIPPPNVTGSLHMGHAFQQTIMDTMIRYQRMQGKNTLWQVGTDHAGIATQMVVERKIAAEEGKTRHDYGREAFIDKIWEWKAESGGTITRQMRRLGNSVDWERERFTMDEGLSNAVKEVFVRLYKEDLIYRGKRLVNWDPKLRTAISDLEVENRESKGSMWHIRYPLADGAKTADGKDYLVVATTRPETLLGDTGVAVNPEDPRYKDLIGKYVILPLVNRRIPIVGDEHADMEKGTGCVQITPAHDFNDYEVGKRHALPMINILTFDGDIRESAQVFDTKGNESDVYSSEIPAEFQKLERFAARKAVVAAVDALGLLEEIKPHDLTVPYGDRGGVVIEPMLTDQWYVRADVLAKPAVEAVENGDIQFVPKQYENMYFSWMRDIQDWCISRQLWWGHRIPAWYDEAGNVYVGRNEDEVRKENNLGADVVLRQDEDVLDTWFSSALWTFSTLGWPENTDALRQFHPTSVMVSGFDIIFFWIARMIMMTMHFIKDENGKPQVPFHTVYMTGLIRDDEGQKMSKSKGNVIDPLDMVDGISLPELLEKRTGNMMQPQLADKIRKRTEKQFPNGIEPHGTDALRFTLAALASTGRDINWDMKRLEGYRNFCNKLWNASRFVLMNTEGQDCGFNGGEMTLSLADRWILAEFNQTIKAYREALDSFRFDIAAGILYEFTWNQFCDWYLELTKPVMNGGTEAELRGTRHTLVTVLEGLLRLAHPIIPFITETIWQRVKVLCGITADTIMLQPFPQYDASQVDEAALADTEWLKQAIVAVRNIRAEMNIAPGKPLELLLRGCSADAERRVNENRGFLQTLARLESITVLPADDKGPVSVTKIIDGAELLIPMAGLINKEDELARLAKEVAKIEGEISRIENKLANEGFVARAPEAVIAKEREKLEGYAEAKAKLIEQQAVIAAL
B2: D230N: ValRS of E. coli with single substitution D230N in the editing domain (protein, UniProt P07118 1-951, looked up, variant D230N)
Valine--tRNA ligase: MEKTYNPQDIEQPLYEHWEKQGYFKPNGDESQESFCIMIPPPNVTGSLHMGHAFQQTIMDTMIRYQRMQGKNTLWQVGTDHAGIATQMVVERKIAAEEGKTRHDYGREAFIDKIWEWKAESGGTITRQMRRLGNSVDWERERFTMDEGLSNAVKEVFVRLYKEDLIYRGKRLVNWDPKLRTAISDLEVENRESKGSMWHIRYPLADGAKTADGKDYLVVATTRPETLLGNTGVAVNPEDPRYKDLIGKYVILPLVNRRIPIVGDEHADMEKGTGCVKITPAHDFNDYEVGKRHALPMINILTFDGDIRESAQVFDTKGNESDVYSSEIPAEFQKLERFAARKAVVAAVDALGLLEEIKPHDLTVPYGDRGGVVIEPMLTDQWYVRADVLAKPAVEAVENGDIQFVPKQYENMYFSWMRDIQDWCISRQLWWGHRIPAWYDEAGNVYVGRNEDEVRKENNLGADVVLRQDEDVLDTWFSSALWTFSTLGWPENTDALRQFHPTSVMVSGFDIIFFWIARMIMMTMHFIKDENGKPQVPFHTVYMTGLIRDDEGQKMSKSKGNVIDPLDMVDGISLPELLEKRTGNMMQPQLADKIRKRTEKQFPNGIEPHGTDALRFTLAALASTGRDINWDMKRLEGYRNFCNKLWNASRFVLMNTEGQDCGFNGGEMTLSLADRWILAEFNQTIKAYREALDSFRFDIAAGILYEFTWNQFCDWYLELTKPVMNGGTEAELRGTRHTLVTVLEGLLRLAHPIIPFITETIWQRVKVLCGITADTIMLQPFPQYDASQVDEAALADTEWLKQAIVAVRNIRAEMNIAPGKPLELLLRGCSADAERRVNENRGFLQTLARLESITVLPADDKGPVSVTKIIDGAELLIPMAGLINKEDELARLAKEVAKIEGEISRIENKLANEGFVARAPEAVIAKEREKLEGYAEAKAKLIEQQAVIAAL
B3: wild-type enzyme: wild-type valyl-tRNA synthetase (ValRS) of E. coli (protein, UniProt P07118 1-951, looked up)
Valine--tRNA ligase: MEKTYNPQDIEQPLYEHWEKQGYFKPNGDESQESFCIMIPPPNVTGSLHMGHAFQQTIMDTMIRYQRMQGKNTLWQVGTDHAGIATQMVVERKIAAEEGKTRHDYGREAFIDKIWEWKAESGGTITRQMRRLGNSVDWERERFTMDEGLSNAVKEVFVRLYKEDLIYRGKRLVNWDPKLRTAISDLEVENRESKGSMWHIRYPLADGAKTADGKDYLVVATTRPETLLGDTGVAVNPEDPRYKDLIGKYVILPLVNRRIPIVGDEHADMEKGTGCVKITPAHDFNDYEVGKRHALPMINILTFDGDIRESAQVFDTKGNESDVYSSEIPAEFQKLERFAARKAVVAAVDALGLLEEIKPHDLTVPYGDRGGVVIEPMLTDQWYVRADVLAKPAVEAVENGDIQFVPKQYENMYFSWMRDIQDWCISRQLWWGHRIPAWYDEAGNVYVGRNEDEVRKENNLGADVVLRQDEDVLDTWFSSALWTFSTLGWPENTDALRQFHPTSVMVSGFDIIFFWIARMIMMTMHFIKDENGKPQVPFHTVYMTGLIRDDEGQKMSKSKGNVIDPLDMVDGISLPELLEKRTGNMMQPQLADKIRKRTEKQFPNGIEPHGTDALRFTLAALASTGRDINWDMKRLEGYRNFCNKLWNASRFVLMNTEGQDCGFNGGEMTLSLADRWILAEFNQTIKAYREALDSFRFDIAAGILYEFTWNQFCDWYLELTKPVMNGGTEAELRGTRHTLVTVLEGLLRLAHPIIPFITETIWQRVKVLCGITADTIMLQPFPQYDASQVDEAALADTEWLKQAIVAVRNIRAEMNIAPGKPLELLLRGCSADAERRVNENRGFLQTLARLESITVLPADDKGPVSVTKIIDGAELLIPMAGLINKEDELARLAKEVAKIEGEISRIENKLANEGFVARAPEAVIAKEREKLEGYAEAKAKLIEQQAVIAAL

How the values were obtained:
[1] = test system: strain PS2449 (mutated gene ileS ala11, plasmid pTLH33); type: cell-based, E. coli; details: 0.1 ml of 25 mM amino acid in central well, 37 degrees, 24 hours
Description: (§1) Strains PS2306 and PS2449 are tested for their sensitivity to artificial amino acids which present a steric resemblance to isoleucine. The cells are cultivated in MS mineral medium, succinate (0.2%), arabinose (0.2%) for 24 h at 37 degrees centigrade and diluted at 1/250in MS mineral medium. 0.5 ml of this cell suspension are spread on a Petri dish containing 25 ml of MS medium supplemented with succinate (0.2%) and arabinose (0.2%). A well is then prepared in the middle of the dish and filled with 0.1 ml of an amino acid solution: • 1) 25 mM S-methyl cysteine • 2) 25 mM homocysteine • 3) 25 mM o-methyl-L-serine • 4) 25 mM Norleucine • 5) 25 mM Norvaline
(§2) The Petri dishes are then incubated at 37 degrees centigrade for 24 hours and the appearance of a zone of inhibition around the well is recorded. The diameters of the zones of attenuated growth are measured as follows: […]

[2] = test system: strain PS2306 (wild type ileS gene, plasmid pVDC433); type: cell-based, E. coli; details: 0.1 ml of 25 mM amino acid in central well, 37 degrees, 24 hours
Description: as §1, §2

tRNA^Val = test: Misacylation of tRNAVal with Thr; type: biochemical, E. coli; details: pH 7.5, 37° C.
Description: FIG. 2B: A graph showing misaminoacylation of tRNA^Val with Thr by the T222P mutant enzyme at pH 7.5 and 37° C. The wild-type (WT) and mutant alleles were cloned under the control of a PBAD promoter (30). The enzymes were partially purified from a laboratory strain lacking the chromosomal copy of the valS gene (ΔvalS::kan+). The purification and aminoacylation procedures were adapted from Hendrickson et al. (31). (Main panel) Misaminoacylation of tRNA^Val with Thr by the two enzymes. (Inset) Aminoacylation of tRNA^Val with Val by the two enzymes.
Aminoaclyation Assay, Misacylation, and Deacylation: Aminoacylation assays were performed at 37 C. in a 100 uL volume containing buffer (20 mM HEPES, 0.1 mM EDTA disodium salt, 0.15M NH4Cl, 10 ug/mL BSA pH 7.5), […] MgCl2, 0.7 μM [^3H]Val, 20 μM cold Val, 2 μM tRNAval (Sigma) and 20 nM ValRS enzyme (adapted from Hendrickson et al. 2000). Aliquots (10 μL) of the reaction mixture were precipitated with tricholoracetic acid, and the level of aminoacylation of the tRNA was determined by scintillation counting.
(§3) Misacylation of Thr onto tRNAval was performed in the same conditions except 5.86 μM [^3H]Thr was substituted forVal in the reaction. To test deacylation rates for these enzymes it was necessary to generate [^3H]Thr-tRNAval. […] Enzyme was incubated with 2.5 μM tRNAval and 45 uM [^3H]Thr, incubated at 37 C. for 45 minutes, extracted twice in phenol:chloroform, and ethanol precipitated. Pellet was dissolved in 100 μL sterile H2O and scintillation counting was used to determine the success of the reaction. Deacylation reactions, done in triplicate for each enzyme, were performed in 155 mM Tris-HCl (pH 7.5), 100 μg/ml BSA, 10 mM MgCl2. At room temperature 2 nM enzyme was combined with [^3H]Thr-tRNAval, at 3, 6, 9, 16, and 30 minutes aliquots (9 μL) of the reaction mixture were precipitated with tricholoracetic acid, and the amount of misaminoacylated [^3H]Thr-tRNAval remaining in the sample was determined by scintillation counting. A no enzyme control reaction was included to provide reference point.

[^3H]Thr-tRNAval = Deacylation of mischarged Thr-tRNAVal by ValRS enzymes; type: biochemical, E. coli; details: 2 nM enzyme, room temperature
Description: FIG. 5B: Histogram representation of the inhibition zone diameters of DvalS::kanR strains harboring each of the ValRS editing mutants on plasmid in response to exogenous Abu. Effects range from mild to severe. Histogram representation of the percentage of mischarged Thr-tRNAVal remaining after incubation with 2 nM enzyme for 15 minutes at room temperature. Both show a distinct range in the severity of editing defects caused by these point mutations. Taken together this illustrates a correlation between the ability of the mutant enzyme to deacylate mischarged amino acids from tRNAVal in vitro and the degree of in vivo toxicity.
as §3

Molecule | diameters of the zones of attenuated growth [1] | diameters of the zones of attenuated growth [2] | misacylation of tRNA^Val with Thr (tRNA^Val) | deacylation of Thr-tRNA^Val in vitro ([^3H]Thr-tRNAval)
N[C@@H](CCS)C(=O)O [Homocysteine] | 2.9 cm | 2.1 cm |  | 
CCCC[C@H](N)C(=O)O [Norleucin, Norleucine] | 3.4 cm | 2.9 cm |  | 
CCC[C@H](N)C(=O)O [Norvaline] | 8.0 cm | 3.7 cm |  | 
COC[C@H](N)C(=O)O [O-methyl-L-serine] | 5.6 cm | 2.2 cm |  | 
CSC[C@H](N)C(=O)O [S-methyl-L-cysteine] | 3.0 cm | 1.3 cm |  | 
B1 |  |  | high levels of mischarged Thr-tRNA^Val | most severe defects
B2 |  |  | low levels of mischarging | slowed rate of deacylation
B3 |  |  | no detectable mischarged tRNA^Val | 
